Measured values taken from the NIST ThermoML archive (doi:10.1016/j.jct.2008.09.002).
Numbers after ± are expanded uncertainties.

Legend:
[1] = 101.33 kPa, Liquid; for speed of sound: Anton-Paar DSA48 sound analyzer; for mass density: Vibrating tube method
[2] = molar heat capacity at constant pressure; conditions: 101.33 kPa, Liquid, Small sample (50 mg) DSC
[3] = excess molar enthalpy (molar enthalpy of mixing); xn = mol fraction of the nth substance listed; conditions: 303.15 K, 101.3 kPa, Liquid, Calvet calorimetry

SMILES	speed of sound ([1]; 293.15 K) [m/s]	mass density ([1]; 293.15 K) [kg/m3]	speed of sound ([1]; 298.15 K) [m/s]	mass density ([1]; 298.15 K) [kg/m3]	speed of sound ([1]; 303.15 K) [m/s]	mass density ([1]; 303.15 K) [kg/m3]	speed of sound ([1]; 308.15 K) [m/s]	mass density ([1]; 308.15 K) [kg/m3]	speed of sound ([1]; 313.15 K) [m/s]	mass density ([1]; 313.15 K) [kg/m3]	speed of sound ([1]; 318.15 K) [m/s]	mass density ([1]; 318.15 K) [kg/m3]	molar heat capacity at constant pressure ([2]; 293.15 K) [J/K/mol]	molar heat capacity at constant pressure ([2]; 298.15 K) [J/K/mol]	molar heat capacity at constant pressure ([2]; 303.15 K) [J/K/mol]	molar heat capacity at constant pressure ([2]; 308.15 K) [J/K/mol]	molar heat capacity at constant pressure ([2]; 313.15 K) [J/K/mol]	molar heat capacity at constant pressure ([2]; 318.15 K) [J/K/mol]	other results
CCCCn1cc[n+](C)c1.COS(=O)(=O)[O-] [1-butyl-3-methylimidazolium methyl sulfate]	1670.9 ± 2	1210.7 ± 1.3	1658.4 ± 2	1207.4 ± 1.3	1646 ± 2	1204.1 ± 1.3	1633.5 ± 2	1200.8 ± 1.3	1621.1 ± 2	1197.5 ± 1.3	1608.6 ± 2	1194.2 ± 1.3	413.7 ± 6.4	416.2 ± 6.4	418.5 ± 6.5	420.9 ± 6.5	423.3 ± 6.6	425.6 ± 6.6	–
CCCCn1cc[n+](C)c1.F[B-](F)(F)F [1-butyl-3-methylimidazolium tetrafluoroborate]	1594.9 ± 2	1207.6 ± 1.3	1576.1 ± 2	1204.1 ± 1.3	1555.5 ± 2	1200.5 ± 1.3	1543.9 ± 2	1197 ± 1.3	1532.5 ± 2	1193.4 ± 1.3	1521.2 ± 2	1189.9 ± 1.3	359.8 ± 5.6	363.1 ± 5.6	366.1 ± 5.7	368.7 ± 5.7	371 ± 5.7	372.9 ± 5.8	–
CCCCn1cc[n+](C)c1.O=S(=O)([O-])C(F)(F)F [1-butyl-3-methylimidazolium trifluoromethanesulfonate]	1403.4 ± 2	1301.6 ± 1.5	1392.1 ± 2	1297.6 ± 1.5	1380.9 ± 2	1293.7 ± 1.5	1369.8 ± 2	1289.7 ± 1.5	1358.8 ± 2	1285.8 ± 1.5	1348.1 ± 2	1281.9 ± 1.5	421.6 ± 6.5	424.1 ± 6.6	426.7 ± 6.6	429.5 ± 6.7	432.4 ± 6.7	435.5 ± 6.7	–
CCCC[n+]1cccc(C)c1.F[B-](F)(F)F [1-butyl-3-methylpyridinium tetrafluoroborate]	1599.8 ± 2	–	1587 ± 2	–	1574.8 ± 2	–	1562.6 ± 2	–	1550.7 ± 2	–	1538.9 ± 2	–	–	–	–	–	–	–	–
CCOS(=O)(=O)[O-].CCn1cc[n+](C)c1 [1-ethyl-3-methylimidazolium ethyl sulfate]	1691.4 ± 2	1240.6 ± 1.4	1679 ± 2	1237.2 ± 1.4	1666.6 ± 2	1233.8 ± 1.4	1654 ± 2	1230.4 ± 1.3	1641.6 ± 2	1227 ± 1.3	1629.2 ± 2	1223.7 ± 1.3	392.2 ± 6.1	394.4 ± 6.1	396.8 ± 6.1	399.3 ± 6.2	402 ± 6.2	404.9 ± 6.3	–
CCn1cc[n+](C)c1.O=S(=O)([O-])C(F)(F)F [1-ethyl-3-methylimidazolium trifluoromethanesulfonate]	1447 ± 2	1389.5 ± 1.7	1435.6 ± 2	1385.3 ± 1.7	1424.3 ± 2	1381.1 ± 1.7	1413.1 ± 2	1376.9 ± 1.7	1402.1 ± 2	1372.7 ± 1.7	1391.1 ± 2	1368.6 ± 1.7	361.1 ± 5.6	363.2 ± 5.6	365.3 ± 5.7	367.4 ± 5.7	369.6 ± 5.7	371.8 ± 5.8	–
CCCCCCn1cc[n+](C)c1.F[B-](F)(F)F [1-hexyl-3-methylimidazolium tetrafluoroborate]	1532.7 ± 2	1148.8 ± 1.2	1519.5 ± 2	1145.3 ± 1.1	1506.9 ± 2	1141.8 ± 1.1	1494.5 ± 2	1138.4 ± 1.1	1482.3 ± 2	1135 ± 1.1	1470.5 ± 2	1131.6 ± 1.1	425.1 ± 6.6	427.8 ± 6.6	430.4 ± 6.7	433 ± 6.7	435.5 ± 6.7	438.1 ± 6.8	–
C[N+](=O)[O-] [nitromethane]	1339.6 ± 1.5	1140.2 ± 0.7	1320.1 ± 1.5	1133.4 ± 0.7	1300.5 ± 1.5	1126.6 ± 0.7	1280.7 ± 1.5	1119.7 ± 0.6	1261.1 ± 1.5	1112.9 ± 0.6	1241.6 ± 1.5	1106 ± 0.6	106.6 ± 1.7	106.9 ± 1.7	107.3 ± 1.7	107.7 ± 1.7	108.2 ± 1.7	108.6 ± 1.7	–
C[N+](=O)[O-] [nitromethane] + CCCC[n+]1cccc(C)c1.F[B-](F)(F)F	–	–	–	–	–	–	–	–	–	–	–	–	–	–	–	–	–	–	excess molar enthalpy ([3]; x2 = 0.0992): -0.0602 ± 0.00478 kcal/mol; excess molar enthalpy ([3]; x2 = 0.1547): -0.0784 ± 0.00621 kcal/mol; excess molar enthalpy ([3]; x2 = 0.1998): -0.0958 ± 0.00765 kcal/mol; excess molar enthalpy ([3]; x2 = 0.3029): -0.106 ± 0.0086 kcal/mol; excess molar enthalpy ([3]; x2 = 0.3978): -0.114 ± 0.00908 kcal/mol; excess molar enthalpy ([3]; x2 = 0.4973): -0.112 ± 0.00908 kcal/mol; excess molar enthalpy ([3]; x2 = 0.6053): -0.0946 ± 0.00765 kcal/mol; excess molar enthalpy ([3]; x2 = 0.7038): -0.0803 ± 0.00645 kcal/mol; excess molar enthalpy ([3]; x2 = 0.795): -0.0557 ± 0.00454 kcal/mol; excess molar enthalpy ([3]; x2 = 0.8525): -0.0387 ± 0.00311 kcal/mol
